Results on one compound are retold here after publication PMC13050340 (Journal of Computer-Aided Molecular Design, 2026).

The target of this experiment is T1, 3-mercaptopyruvate sulfurtransferase (3-MST) (Homo sapiens, UniProt P25325).
T1 sequence (P25325 2-297): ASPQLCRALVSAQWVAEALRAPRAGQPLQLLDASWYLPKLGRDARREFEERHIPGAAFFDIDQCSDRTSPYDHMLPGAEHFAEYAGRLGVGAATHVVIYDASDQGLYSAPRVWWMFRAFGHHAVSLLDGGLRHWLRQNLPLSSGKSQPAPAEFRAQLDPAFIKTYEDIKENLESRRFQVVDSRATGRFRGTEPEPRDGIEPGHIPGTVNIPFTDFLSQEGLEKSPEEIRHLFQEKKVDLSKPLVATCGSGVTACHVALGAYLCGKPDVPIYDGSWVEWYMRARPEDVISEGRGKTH
Nature of the experiment: biochemical 3-MST inhibition assay, concentration-response.

Each structure is given as a SMILES string.

One may read the IC50 as the concentration that gives 50% inhibition. A high value points to weaker potency. In turn, `COc1cc2cc(Oc3ccc4ccc(=O)oc4c3)c(=O)oc2cc1O` [compound 5, Daphnoretin] had an IC50 of 9.59 ± 1.22 µM.
